Laboratory results: US20240425464A1, “Substituted Monohydrazides as Potent Antifungal Agents” (University of Kentucky Research Foundation, priority 2023, published 2024)
≈ marks a conversion by molar mass, not a printed value. Like-named read-outs stand apart in the source and are kept apart here.

Test system: Candida auris strain AR Bank #384 (K)
Assay: MIC determination by in vitro antifungal assay
Assay type: cell-based
Experimental: The antifungal agent amphotericin B (AmB) was purchased from VWR (Radnor PA, USA). AmB was dissolved in DMSO at a final concentration of 5 mg/mL and was stored at −20° C., protected from light. Candida albicans American Type Culture Collection (ATCC) 10231 (strain A), C. albicans ATCC 64124 (B), and C. albicans ATCC MYA-2876 (C) were obtained from Utah State University. C. albicans ATCC 90819 (D), C. albicans ATCC MYA-2310 (E), C. albicans ATCC MYA-1237 (F), C. albicans ATCC MYA-1003 (G), Candida glabrata ATCC 2001 (H), Candida krusei ATCC 6258 (I), Candida parapsilosis ATCC 22019 (J), Cryptococcus neoformans ATCC MYA-895 (M), Aspergillus terreus ATCC MYA-3633 (N), and Aspergillus flavus ATCC MYA-3631 (0) were obtained from the American Type Culture Collection (ATCC; Manassas, VA, USA). Aspergillus nidulans ATCC 38163 (P) was obtained from University of Kentucky. Clinically derived Aspergillus fumigatus NRRL 163 (Q), A. fumigatus NRRL 5109 (R), and A. fumigatus NRRL 6113 (S) were obtained from Northern Regional Research Laboratory (NRRL). Candida auris 384 (K), C. auris 390 (L), and fungal strains 381-400 (including 10 C. auris (AR Bank #381-390), 3 Candida duobushaemulonii (AR Bank #391, AR Bank #392, and AR Bank #394), 2 Candida haemulonii (AR Bank #393 and AR Bank #395), 1 Kodameae ohmeri (AR Bank #396), 1 C. krusei (AR Bank #397), 1 Candida lusitaniae (AR Bank #398), and 2 Saccharomyces cerevisiae strains (AR Bank #399 and AR Bank #400)) were part of a larger fungal library from the AR Bank maintained by the Centers for Disease Control and Prevention (CDC; Atlanta, GA, USA). Filamentous fungi and yeasts were cultivated at 35° C. in RPMI 1640 medium (with L-glutamine, without sodium bicarbonate, Sigma-Aldrich, St. Louis, MO) buffered to a pH of 7.0 with 0.165 M morpholinepropanesulfonic acid (MOPS) buffer (Sigma-Aldrich). For cytotoxicity assays, HepG2 and the mouse macrophage cell line J774A.1 were obtained from University of Kentucky. The human embryonic kidney cell line, HEK-293, was bought from the ATCC. Mammalian cells were grown in Dulbecco's Modified Eagle's Medium (DMEM) (from VWR) with 10% fetal bovine serum (FBS) (from VWR) and 1% Pen/Strep (from ATCC). Cell lines were cultured at 37° C. with 5% CO2 and passaged by trypsinization with 0.05% trypsin: 0.53 mM EDTA (from Sigma-Aldrich).
From the actively growing yeast culture, 100 µL were then transferred to 900 μL of RPMI 1640 medium and re-adjusted to achieve OD600 of 0.12 (˜1×10^6 CFU/mL). The cell suspension was further diluted to achieve 1:100 in RPMI 1640 medium.
Finally, the activity of these monohydrazides was explored against […] non-Candida strains: Cryptococcus neoformans ATCC MYA-895 (M), Aspergillus terreus ATCC MYA-3633 (N), Aspergillus flavus ATCC MYA-3631 (O), Aspergillus nidulans ATCC 38163 (P), Aspergillus fumigatus NRRL 163 (Q), A. fumigatus NRRL 5109 (R), and A. fumigatus NRRL 6113 (S) (Tables 1A and 1B). The double dilution method was used with concentrations ranging from 0.06 to 31.3 j·tg mL^−1 for monohydrazides 1a-9j, and the commercially available positive antifungal control amphotericin B (AmB).

[1] = strain K = C. auris AR Bank # 0384 (Tables 1A/1B)
[2] = C. auris AR Bank # 384 (K) (Table 2B)
[3] = Candidozyma auris, strain K = C. auris AR Bank # 0384 (Tables 1A/1B), read-out: MIC
[4] = Candidozyma auris, C. auris AR Bank # 384 (K) (Table 2B), read-out: MIC
[5] = Candidozyma auris, C. auris AR Bank #384 (K), read-out: MIC

SMILES | MIC [1] [μg/mL^−1] | MIC [3] [µg/mL] | also measured
O=C(NNc1ccc(Cl)cc1)c1ccc(F)cc1F [Compound 1e] | 7.8 | – | –
O=C(NNc1ccc(Cl)cc1)c1nc(F)ccc1F [Compound 8e] | 7.8 | – | MIC [2]: 7.8 μg/mL^−1
COc1ccc(NNC(=O)c2ccc(Br)cn2)cc1 [Compound 4f] | – | 1.95 (≈ 6.05 µM) | –
O=C(NNc1ccc(Cl)cc1)c1ccccn1 [Compound 2e] | 1.95 | – | MIC (C. auris AR Bank #384 (K)): 1.95 μg/mL^−1
O=C(NNc1cc(Cl)cc(Cl)c1)c1ccc(F)cc1F [Compound 1j] | – | > 31.3 | MIC [4]: 15.6 µg/mL (≈ 49.2 µM)
O=C(NNc1cccc(Cl)c1)c1ccccn1 [Compound 2b] | 0.98 | – | MIC (C. auris AR Bank #384 (K)): 0.98 μg/mL^−1
COc1cccc(NNC(=O)c2ccc(Br)cn2)c1 [Compound 4c] | – | 1.95 (≈ 6.05 µM) | –
COc1cccc(NNC(=O)c2ncc(F)cc2F)c1 [Compound 7c] | – | 7.8 (≈ 27.9 µM) | –
COc1cccc(NNC(=O)c2cnccn2)c1 [Compound 9c] | – | 1.95 (≈ 7.98 µM) | MIC [5]: 1.95 µg/mL (≈ 7.98 µM)
O=C(NNc1cccc(F)c1)c1ccccn1 [Compound 2a] | 1.95 | – | MIC (C. auris AR Bank #384 (K)): 1.95 μg/mL^−1
COc1ccc(NNC(=O)c2ncc(F)cc2F)cc1 [Compound 7f] | – | 3.9 (≈ 14 µM) | MIC [4]: 0.98 µg/mL (≈ 3.51 µM)
C[C@@H]1[C@H](O)[C@@H](C)/C=C/C=C/C=C/C=C/C=C/C=C/C=C/[C@H](O[C@@H]2O[C@H](C)[C@@H](O)[C@H](N)[C@@H]2O)C[C@@H]2O[C@](O)(C[C@@H](O)C[C@@H](O)[C@H](O)CC[C@@H](O)C[C@@H](O)CC(=O)O[C@H]1C)C[C@H](O)[C@H]2C(=O)O [AmB, amphotericin B, reference compound] | 1.95 | – | MIC (C. auris AR Bank #384 (K)): 1.95 μg/mL^−1; MIC [2]: 1.95 μg/mL^−1
O=C(NNc1cc(F)cc(F)c1)c1ccc(F)cc1F [Compound 1i] | – | 15.6 (≈ 54.9 µM) | –
O=C(NNc1ccc(F)cc1)c1ccc(F)cn1 [Compound 3d] | 3.9 | – | MIC [2]: 0.98 μg/mL^−1
COc1ccc(NNC(=O)c2nc(F)ccc2F)cc1 [Compound 8f] | – | 3.9 (≈ 14 µM) | MIC [4]: 0.98 µg/mL (≈ 3.51 µM)
O=C(NNc1ccc(F)cc1F)c1cccc(F)n1 [Compound 5g] | – | 7.8 (≈ 29.2 µM) | MIC [4]: 3.9 µg/mL (≈ 14.6 µM)
COc1ccc(NNC(=O)c2ccccn2)cc1 [Compound 2f] | – | 3.9 (≈ 16 µM) | MIC [5]: 3.9 µg/mL (≈ 16 µM)
O=C(NNc1cccc(F)c1)c1ncc(F)cc1F [Compound 7a] | 1.95 | – | –
O=C(NNc1cccc(F)c1)c1cccc(Br)n1 [Compound 6a] | 3.9 | – | –
O=C(NNc1cccc(F)c1)c1ccc(F)cn1 [Compound 3a] | 1.95 | – | –
COc1ccc(NNC(=O)c2ccc(F)cc2F)cc1 [Compound 1f] | – | 1.95 (≈ 7.01 µM) | –

SMILES | MIC [1] [μg/mL^−1] | MIC [3] [µg/mL] | also measured
COc1cccc(NNC(=O)c2ccc(F)cn2)c1 [Compound 3c] | 1.95 | – | MIC [2]: 0.49 μg/mL^−1
O=C(NNc1cc(F)cc(F)c1)c1ccccn1 [Compound 2i] | – | 0.24 (≈ 0.963 µM) | MIC [5]: 0.98 µg/mL (≈ 3.93 µM)
O=C(NNc1ccc(F)cc1F)c1cnccn1 [Compound 9g] | – | 3.9 (≈ 15.6 µM) | MIC [5]: 3.9 µg/mL (≈ 15.6 µM)
COc1cccc(NNC(=O)c2ccccn2)c1 [Compound 2c] | 0.98 | – | MIC (C. auris AR Bank #384 (K)): 0.98 μg/mL^−1
O=C(NNc1cccc(F)c1)c1cccc(F)n1 [Compound 5a] | 1.95 | – | –
COc1cccc(NNC(=O)c2ccc(F)cc2F)c1 [Compound 1c] | – | 1.95 (≈ 7.01 µM) | –
O=C(NNc1ccc(F)cc1F)c1ccc(Br)cn1 [Compound 4g] | – | 3.9 (≈ 11.9 µM) | –
COc1ccc(NNC(=O)c2ccc(F)cn2)cc1 [Compound 3f] | 3.9 | – | –
O=C(NNc1cc(F)ccc1F)c1ccccn1 [Compound 2h] | – | 0.24 (≈ 0.963 µM) | MIC [5]: 1.95 µg/mL (≈ 7.82 µM)
O=C(NNc1ccc(Cl)cc1)c1ccc(F)cn1 [Compound 3e] | 7.8 | – | MIC [2]: 7.8 μg/mL^−1
O=C(NNc1ccc(F)cc1F)c1ccccn1 [Compound 2g] | – | 0.49 (≈ 1.97 µM) | MIC [5]: 0.49 µg/mL (≈ 1.97 µM)
O=C(NNc1cc(F)ccc1F)c1ccc(F)cc1F [Compound 1h] | – | 31.3 (≈ 110 µM) | –
O=C(NNc1cccc(F)c1)c1ccc(F)cc1F [Compound 1a] | 1.95 | – | –
O=C(NNc1ccc(Cl)cc1)c1cnccn1 [Compound 9e] | 1.95 | – | MIC (C. auris AR Bank #384 (K)): 1.95 μg/mL^−1
O=C(NNc1cccc(F)c1)c1nc(F)ccc1F [Compound 8a] | 1.95 | – | –
O=C(NNc1ccc(F)cc1)c1cnccn1 [Compound 9d] | – | 0.49 (≈ 2.11 µM) | –
COc1ccc(NNC(=O)c2cccc(Br)n2)cc1 [Compound 6f] | – | 1.95 (≈ 6.05 µM) | –
O=C(NNc1ccc(F)cc1F)c1ncc(F)cc1F [Compound 7g] | – | 7.8 (≈ 27.3 µM) | MIC [4]: 0.98 µg/mL (≈ 3.44 µM)
O=C(NNc1ccc(F)cc1)c1cccc(F)n1 [Compound 5d] | – | 1.95 (≈ 7.82 µM) | MIC [4]: 0.49 µg/mL (≈ 1.97 µM)
COc1ccc(NNC(=O)c2cccc(F)n2)cc1 [Compound 5f] | – | 1.95 (≈ 7.46 µM) | –
O=C(NNc1ccc(F)cc1)c1ccccn1 [Compound 2d] | – | 3.9 (≈ 16.9 µM) | MIC [5]: 3.9 µg/mL (≈ 16.9 µM)

SMILES | MIC [1] [μg/mL^−1] | MIC [3] [µg/mL] | also measured
COc1cccc(NNC(=O)c2nc(F)ccc2F)c1 [Compound 8c] | – | 15.6 (≈ 55.9 µM) | –
O=C(NNc1cccc(Cl)c1)c1ccc(F)cc1F [Compound 1b] | – | 13.6 (≈ 48.1 µM) | MIC [4]: 7.8 µg/mL (≈ 27.6 µM)
O=C(NNc1ccc(F)cc1)c1cccc(Br)n1 [Compound 6d] | – | 3.9 (≈ 12.6 µM) | MIC [4]: 0.98 µg/mL (≈ 3.16 µM)
O=C(NNc1cccc(F)c1)c1cnccn1 [Compound 9a] | 0.98 | – | –
O=C(NNc1cc(F)cc(F)c1)c1cnccn1 [Compound 9i] | – | 0.49 (≈ 1.96 µM) | –
O=C(NNc1ccc(F)cc1)c1ncc(F)cc1F [Compound 7d] | – | 1.95 (≈ 7.3 µM) | MIC [4]: 0.49 µg/mL (≈ 1.83 µM)
O=C(NNc1ccc(F)cc1)c1ccc(Br)cn1 [Compound 4d] | – | 7.8 (≈ 25.2 µM) | MIC [4]: 1.95 µg/mL (≈ 6.29 µM)
O=C(NNc1ccc(Cl)cc1)c1cccc(F)n1 [Compound 5e] | 3.9 | – | MIC [2]: 3.9 μg/mL^−1
O=C(NNc1cc(Cl)cc(Cl)c1)c1ccccn1 [Compound 2j] | – | 7.8 (≈ 27.6 µM) | MIC [5]: 7.8 µg/mL (≈ 27.6 µM)
O=C(NNc1ccc(Cl)cc1)c1ncc(F)cc1F [Compound 7e] | 3.9 | – | MIC [2]: 7.9 μg/mL^−1
O=C(NNc1cccc(F)c1)c1ccc(Br)cn1 [Compound 4a] | 1.95 | – | –
O=C(NNc1ccc(F)cc1F)c1ccc(F)cn1 [Compound 3g] | – | 7.8 (≈ 29.2 µM) | MIC [4]: 0.98 µg/mL (≈ 3.67 µM)
O=C(NNc1cc(Cl)cc(Cl)c1)c1cnccn1 [Compound 9j] | – | 15.6 (≈ 55.1 µM) | –
O=C(NNc1ccc(F)cc1)c1ccc(F)cc1F [Compound 1d] | – | 1.95 (≈ 7.32 µM) | –
O=C(NNc1ccc(F)cc1F)c1ccc(F)cc1F [Compound 1g] | – | 15.6 (≈ 54.9 µM) | –
O=C(NNc1cc(F)ccc1F)c1cnccn1 [Compound 9h] | – | 0.49 (≈ 1.96 µM) | –
O=C(NNc1ccc(F)cc1)c1nc(F)ccc1F [Compound 8d] | – | 1.95 (≈ 7.3 µM) | MIC [4]: 0.49 µg/mL (≈ 1.83 µM)
COc1ccc(NNC(=O)c2cnccn2)cc1 [Compound 9f] | – | 0.49 (≈ 2.01 µM) | MIC [5]: 0.98 µg/mL (≈ 4.01 µM)
O=C(NNc1cccc(Cl)c1)c1cnccn1 [Compound 9b] | – | 1.95 (≈ 7.84 µM) | MIC [5]: 0.98 µg/mL (≈ 3.94 µM)
O=C(NNc1ccc(F)cc1F)c1nc(F)ccc1F [Compound 8g] | – | 3.9 (≈ 13.7 µM) | MIC [4]: 0.98 µg/mL (≈ 3.44 µM)
